Reference: US20080050387A1, “Non-Androgen Dependent Roles for Androgen Receptor and Non-Androgen Related Inhibitors of Androgen Receptor” (priority 2003, published 2008)

How the values were obtained:
AR N/C interaction = test: Reconstituted AR transcription assay (AR N/C interaction) in PC-3 cells; format: cell-based, human; settings: 10 nM DHT, MMTV-LUC
Experimental: (§1) PC-3, CWR22R, and LNCaP cell lines were maintained in […] supplemented with 10% fetal calf serum (FCS). Transient transfection for luciferase assays was carried out in 24-well plates (5×10^4 cells per well) using SuperFect as described previously (Lin, H. K., et al., Embo J 21:4037-48 (2002)). DNA mixtures in transfection assay were indicated in each figure. The total amount of transfected DNA was kept constant (1 μg) by adding the corresponding amounts of empty expression plasmids. After transfection, cells were cultured in RPMI-1600 supplemented with 5% charcoal-stripped FCS in the presence or absence of 10 nM dihydrotestosterone (DHT) for 18 h. Luciferase assays were performed as previously described (Yang, L., et al., J Biol Chem 278:16820-7 (2003)). In Western blotting assays, CWR22R or LNCaP cells were transfected by electroporation using 5×10^6 cells/0.4 ml of RPMI medium containing 2% FCS plus 9 μg of the indicated plasmids. 1 μg of EGFP expression vector was used for transfection efficiency. Electroporation was performed at 250 V and 950 μF using Gene Pulser II (Bio-Rad)

AR [1] = test: Mammalian two-hybrid assay hRad9 / AR in PC-3 cells; format: cell-based, human; settings: 10 nM DHT, positive control
Experimental: as §1
Target sequence in this assay (P10275 with tags, fused parts or gaps DEL79-80/DUP473-473): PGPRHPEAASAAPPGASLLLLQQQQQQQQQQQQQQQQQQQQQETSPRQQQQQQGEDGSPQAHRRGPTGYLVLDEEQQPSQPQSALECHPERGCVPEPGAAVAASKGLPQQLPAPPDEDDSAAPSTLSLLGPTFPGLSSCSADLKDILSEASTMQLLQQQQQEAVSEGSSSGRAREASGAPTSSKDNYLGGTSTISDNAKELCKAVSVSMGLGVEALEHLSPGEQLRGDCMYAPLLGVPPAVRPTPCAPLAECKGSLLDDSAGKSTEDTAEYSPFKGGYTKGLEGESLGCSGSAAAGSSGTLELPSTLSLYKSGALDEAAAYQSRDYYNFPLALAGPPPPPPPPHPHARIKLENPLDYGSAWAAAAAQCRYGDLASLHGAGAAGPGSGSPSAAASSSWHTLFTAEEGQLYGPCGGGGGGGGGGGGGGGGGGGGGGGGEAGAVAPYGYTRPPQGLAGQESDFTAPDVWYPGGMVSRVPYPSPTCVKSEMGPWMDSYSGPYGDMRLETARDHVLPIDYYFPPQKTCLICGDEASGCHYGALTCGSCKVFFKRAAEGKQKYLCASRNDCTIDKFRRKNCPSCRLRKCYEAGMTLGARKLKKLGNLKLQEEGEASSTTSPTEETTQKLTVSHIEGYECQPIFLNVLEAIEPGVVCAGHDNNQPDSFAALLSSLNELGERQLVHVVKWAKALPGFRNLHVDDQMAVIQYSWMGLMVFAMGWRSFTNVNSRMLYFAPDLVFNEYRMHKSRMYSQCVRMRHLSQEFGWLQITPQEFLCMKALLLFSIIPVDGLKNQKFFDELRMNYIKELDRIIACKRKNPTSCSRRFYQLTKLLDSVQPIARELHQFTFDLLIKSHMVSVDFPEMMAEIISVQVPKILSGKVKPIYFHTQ

AR [2] = test: In vitro GST pull-down assay GST-hRad9 / AR domains; format: binding, human
Experimental: The N-terminus (N), DBD, LBD, and DBD-LBD of AR were in vitro translated in the presence of [^35S] methionine using T7 polymerase and the coupled transcription/translation kit (Promega). pGEX-KG-hRad9 plasmids expressing GST-hRad9 fusion protein were transformed into BL21 (DE3) bacteria strain. 0.4 mM isopropyl-o-D-thiogalactopyranoside was added into LB medium containing transformed bacteria when the OD600 reached 0.5. Bacteria were further cultured in 30° C. for 3 h and lysed by 4 cycles of freezing-thawing in NETN buffer (20 mM Tris/pH 8.0, 0.5% NP-40, 100 mM NaCl, 6 mM MgCl2, 1 mM EDTA, 1 mM DTT, 8% glycerol, and 1 mM PMSF). The GST-hRad9 fusion proteins were purified with glutathione-beads in 4° C. Labeled proteins of AR mutants were incubated with equal amounts of GST-hRad9 in binding buffer (50 mM Hepes, 100 mM NaCl, 20 mM Tris-Cl/pH 8.0, 0.1% Tween 20, 10% glycerol, 1 mM dithiothreitol, 0.5 mM phenylmethysulfonyl fluoride, 1 mM NaF, and 0.4 mM sodium vanadate) with or without 10 nM DHT at 4° C. for 2 h. The beads were then washed with NETN buffer 4 times, resuspended in SDS-polyacrylamide loading buffer, and resolved on 10% SDS-polyacrylamide gel electrophoresis followed by autoradiograhy.

AR (DBD-LBD, LBD, DBD) = test: Yeast two-hybrid / liquid β-gal assay hRad9 fragment / AR domains; format: cell-based, human; settings: AH109 yeast cells
Text: The DBD and LBD of AR cDNA was amplified and was cloned into the NdeI and BamHI site of pGBKT7 (Clontech). Yeast strain AH109 was transformed with the vector encoding GAL4 DBD-AR-DBD-LBD fusion and was mated with yeast strain Y187 pretransformed with the human ovary […] cDNA library (Clontech). The yeast clones were selected following the manufacturer's instruction. The positive clones were confirmed by clone lift assay and purified plasmids were retransformed into yeast strain AH109 with bait plasmids. The interaction specificity was further confirmed by liquid […] assay.

[3] = test system: PSA expression in LNCaP cells; test: DHT-mediated induction of PSA protein in LNCaP cells with hRad9; format: cell-based, human; settings: 10 nM DHT
Experimental: as §1

[4] = test system: estrogen receptor α (ERα); test: Mammalian two-hybrid assay hRad9 / ERα; format: cell-based; settings: PC-3 cells, presence of estrogen
Experimental: as §1, with “After transfection, cells were cultured in RPMI-1600 supplemented with 5% charcoal-stripped FCS in the presence or absence of 10 nM dihydrotestosterone (DHT) for 18 h.” left out

vitamin D receptor (VDR) [5] = test: Mammalian two-hybrid assay hRad9 / VDR; format: cell-based; settings: PC-3 cells
Experimental: as §1

AR [6] = test: AR transactivation MMTV-LUC assay in PC-3 cells with hRad9; format: cell-based, human; settings: MMTV-LUC, 10 nM DHT
Experimental: as §1
Target sequence in this assay (P10275 with tags, fused parts or gaps DEL79-80/DUP473-473): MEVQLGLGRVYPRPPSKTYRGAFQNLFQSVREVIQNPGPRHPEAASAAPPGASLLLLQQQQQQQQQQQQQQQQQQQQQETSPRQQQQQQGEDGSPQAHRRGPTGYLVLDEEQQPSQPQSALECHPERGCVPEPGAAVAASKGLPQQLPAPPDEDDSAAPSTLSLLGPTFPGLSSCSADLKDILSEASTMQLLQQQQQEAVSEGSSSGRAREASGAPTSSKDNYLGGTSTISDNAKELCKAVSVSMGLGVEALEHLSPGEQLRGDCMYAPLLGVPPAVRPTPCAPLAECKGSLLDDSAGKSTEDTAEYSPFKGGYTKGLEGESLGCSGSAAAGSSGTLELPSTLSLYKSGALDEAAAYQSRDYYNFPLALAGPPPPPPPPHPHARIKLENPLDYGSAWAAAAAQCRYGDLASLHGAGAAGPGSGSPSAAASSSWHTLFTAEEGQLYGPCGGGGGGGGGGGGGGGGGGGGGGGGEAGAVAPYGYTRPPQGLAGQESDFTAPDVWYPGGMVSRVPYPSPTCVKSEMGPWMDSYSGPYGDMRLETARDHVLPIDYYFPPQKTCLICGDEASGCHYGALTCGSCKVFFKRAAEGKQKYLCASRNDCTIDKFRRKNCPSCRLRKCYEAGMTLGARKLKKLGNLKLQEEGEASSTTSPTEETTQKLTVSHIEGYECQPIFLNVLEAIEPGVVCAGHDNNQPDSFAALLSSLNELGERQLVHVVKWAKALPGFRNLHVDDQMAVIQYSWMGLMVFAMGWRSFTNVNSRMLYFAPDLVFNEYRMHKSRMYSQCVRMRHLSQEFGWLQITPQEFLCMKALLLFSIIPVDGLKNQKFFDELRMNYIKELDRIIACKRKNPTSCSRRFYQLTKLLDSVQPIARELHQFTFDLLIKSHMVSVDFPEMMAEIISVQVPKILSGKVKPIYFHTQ

vitamin D receptor (VDR) [7] = test: VDR transcriptional activity rCyp24-LUC in PC-3 cells with hRad9; format: cell-based; settings: cognate ligand
Experimental: as §1

[8] = test system: estrogen receptor α (ERα); test: ERα transcriptional activity ERE-LUC in PC-3 cells with hRad9; format: cell-based; settings: cognate ligand
Experimental: as §1

Sequence of estrogen receptor α (ERα) (P03372 whole entry, species assumed): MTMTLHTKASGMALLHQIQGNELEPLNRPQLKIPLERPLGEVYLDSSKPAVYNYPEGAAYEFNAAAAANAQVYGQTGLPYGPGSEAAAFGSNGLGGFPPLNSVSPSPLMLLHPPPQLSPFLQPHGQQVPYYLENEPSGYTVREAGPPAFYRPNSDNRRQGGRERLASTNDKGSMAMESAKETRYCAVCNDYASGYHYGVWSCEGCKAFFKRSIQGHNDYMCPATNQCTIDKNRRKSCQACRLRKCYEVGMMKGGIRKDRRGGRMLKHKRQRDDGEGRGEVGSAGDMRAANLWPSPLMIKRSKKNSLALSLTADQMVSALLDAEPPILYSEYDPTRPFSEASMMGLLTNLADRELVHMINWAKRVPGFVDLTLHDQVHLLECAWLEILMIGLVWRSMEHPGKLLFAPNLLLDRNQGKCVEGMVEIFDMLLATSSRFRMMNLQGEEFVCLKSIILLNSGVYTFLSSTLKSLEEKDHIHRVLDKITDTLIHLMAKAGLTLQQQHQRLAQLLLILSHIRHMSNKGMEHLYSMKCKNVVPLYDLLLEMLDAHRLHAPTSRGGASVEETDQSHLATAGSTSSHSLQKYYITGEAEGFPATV
Sequence of vitamin D receptor (VDR) (P11473 whole entry, species assumed): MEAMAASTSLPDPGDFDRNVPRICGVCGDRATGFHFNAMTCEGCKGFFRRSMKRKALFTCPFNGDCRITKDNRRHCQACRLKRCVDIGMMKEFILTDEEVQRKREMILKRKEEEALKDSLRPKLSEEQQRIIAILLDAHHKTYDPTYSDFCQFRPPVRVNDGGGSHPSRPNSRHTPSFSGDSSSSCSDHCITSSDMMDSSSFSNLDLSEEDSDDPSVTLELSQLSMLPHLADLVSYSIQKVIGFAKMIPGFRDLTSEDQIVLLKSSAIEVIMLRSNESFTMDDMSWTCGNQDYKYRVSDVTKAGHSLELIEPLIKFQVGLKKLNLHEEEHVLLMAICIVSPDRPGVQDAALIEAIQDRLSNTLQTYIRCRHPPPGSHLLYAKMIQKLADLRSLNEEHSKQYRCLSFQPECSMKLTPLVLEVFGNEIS
Sequence of AR N/C interaction (P10275 557-920): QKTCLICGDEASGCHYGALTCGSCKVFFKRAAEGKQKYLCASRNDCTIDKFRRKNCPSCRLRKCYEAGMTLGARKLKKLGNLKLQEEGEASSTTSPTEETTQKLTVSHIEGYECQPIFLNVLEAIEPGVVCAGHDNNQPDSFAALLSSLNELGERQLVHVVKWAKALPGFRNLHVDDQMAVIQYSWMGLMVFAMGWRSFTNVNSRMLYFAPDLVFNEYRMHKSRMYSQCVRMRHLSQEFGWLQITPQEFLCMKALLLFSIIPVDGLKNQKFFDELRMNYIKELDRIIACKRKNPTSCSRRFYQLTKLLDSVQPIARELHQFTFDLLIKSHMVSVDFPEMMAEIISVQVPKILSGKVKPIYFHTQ
Sequence of AR (DBD-LBD, LBD, DBD) (P10275 558-624): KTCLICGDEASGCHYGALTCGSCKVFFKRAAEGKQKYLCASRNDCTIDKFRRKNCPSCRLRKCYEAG

| Substance | interaction between AR N- and C-terminus (AR N/C interaction) | DHT-dependent interaction with VP16-AR (AR [1]) | interaction with AR LBD and AR-DBD-LBD (AR [2]) | interaction with N-terminus of AR (aa. 1-556) and DBD alone (AR [2]) | interaction with GAL4-AR-DBD (AR (DBD-LBD, LBD, DBD)) | DHT-mediated induction of PSA [3] | interaction with ERα [4] | interaction with VDR (vitamin D receptor (VDR) [5]) | transcriptional activity of AR (AR [6]) | VDR transcriptional activity (vitamin D receptor (VDR) [7]) | ER transcriptional activity [8] |
| --- | --- | --- | --- | --- | --- | --- | --- | --- | --- | --- | --- |
| HPTHSSRLWELLMEATPTM [GAL4-D30 peptide, reference compound] | blockage | 350 fold |  |  |  |  |  |  |  |  |  |
| hRad9: human checkpoint protein of the Rad family (SEQ ID NO:7), corepressor of AR |  |  | interacted specifically | Neither the N-terminus of AR (aa. 1-556) nor the DBD alone adhered | did not interact | potently inhibited | no interaction | no interaction | decreased | little inhibitory effect | little inhibitory effect |
